According to US20220313780A1, “METHODS AND COMPOSITIONS FOR TREATING INFLAMMATORY CONDITIONS” (THE SCRIPPS RESEARCH INSTITUTE, priority 2019, published 2022):
Entries after “also recorded” stand apart in the source; their conditions may differ.

Test system: caspase 1
Assay: Caspase 1 activity assay in PMA-differentiated THP1 cells treated with LPS and ATP
Format: cell-based, human
Settings: for caspase 1 activity: peptide 50 μM for 60 min before LPS (1 μg/mL) and ATP (5 mM), THP1 cells
Procedure: THP1-null (THP1) cells were plated at a final concentration of 1×10^6/mL in 96 well plates and incubated with PMA (0.5 μM) for 3 hours 37° C. in supplemented RPMI. Media was subsequently changed every 24 hours for 3 days. Various subsets of wells were selected and cells were treated for 60 minutes at 37° C. in serum-free RPMI with: (A) APC (4 μg/mL), TR47 (50 μM-2 nM), scrTR47 (50 μM), SFLLRN (50 μM), TFLLRN (50 μM); (B) P3R (50 μM-500 nM), P3K (50 μM); (C) APC (4 or 1 μg/mL), TR47 (8 nM), P3R (500 nM) or TR47+P3R (8 nM and 500 nM, respectively); (D) TR47 (0-128 nM) (●)±P3R (500 nM) (□); (E) P3R (0-500 nM) (●)±TR47 (1 nM) (□). Following DPBS wash, cells were incubated with LPS (1 μg/mL) for 3 hours at 37° C. in serum-free RPMI. After a DPBS wash, cells were incubated with ATP (5 mM) in the presence or absence of 10 μM YVAD (caspase 1 inhibitor) or 2.5 μM ZVAD (pan-caspase inhibitor) for 45 minutes at 37° C., prior to performing the caspase 1 activity assay following manufacturer's directions measuring luminescence (relative luminescent units, RLU). (D & E) Experimental caspase 1 activity was normalized to YVAD (caspase 1 inhibitor) luminescence units. (A-E) Data points represent mean±S.D. of at least 3 independent experiments. *P<0.05 (vs. LPS+ATP); #P<0.05 (vs. LPS+ATP & APC, TR47 or P3R); **P<0.005 (vs. LPS+ATP & TR47+500 nM P3R); n.s. not significant.
THP1 cells were plated at a final concentration of 1×10^6/mL in 96 well plates and incubated with PMA (0.5 μM) for 3 hours 37° C. in supplemented RPMI. Media was subsequently changed every 24 hours for 3 days. Selected wells were treated with APC (4 μg/mL), (A) 50 μM or (B) 2 μM of P3R, P3Rm, P3R 51-65, P3R 51-59, P3R 54-59 or P3R 59-65 for 1 hour, washed with DPBS, and incubated with LPS (1 μg/mL) for 3 hours at 37° C. in serum-free RPMI. Cells were washed with DPBS and incubated with ATP (5 mM) in the presence or absence of 10 μM YVAD (caspase 1 inhibitor; C1i) or 2.5 μM ZVAD (pan-caspase inhibitor; pCi) for 45 minutes at 37° C., prior to performing the caspase 1 activity assay following manufacturer's directions measuring luminescence (relative luminescent units, RLU). (C) Diagram showing the PAR3 sequence, peptide sequences and relative (anti-inflammatory) activity. These include sequences of P3R (SEQ ID NO:4), P3Rm (SEQ ID NO:8), P3R 51-65 (SEQ ID NO:9), P3R 51-59 (SEQ ID NO:10), P3R 54-59 (SEQ ID NO:54) and P3R 59-65 (SEQ ID NO:55).
THP1 cells were plated at a final concentration of 1×10^6/mL in 96 well plates and incubated with PMA (0.5 μM) for 3 hours 37° C. in supplemented RPMI. Media was subsequently changed every 24 hours for 3 days. Selected wells were treated with APC (4 μg/mL), TR47, in (A) 9-mer (TR47 9-mer; NPNDKYEPF (SEQ ID NO:36)) or Ac-TR47 (Acylated TR47) at either 50 μM or 10 nM or (B) 50 μM of 16-mer-TR47, 8-mer-TR47, 6-mer-TR47, TR47 N−1, TR47 N−2, TR47 N−5, TR47AQ, TR47AD, TR47AA or TR48-54 for 1 hour, washed with DPBS, and incubated with LPS (1 μg/mL) for 3 hours at 37° C. in serum-free RPMI. Cells were washed with DPBS and incubated with ATP (5 mM) in the presence or absence of 10 μM YVAD (caspase 1 inhibitor; C1i) or 2.5 μM ZVAD (pan-caspase inhibitor; pCi) for 45 minutes at 37° C., prior to performing the caspase 1 activity assay following manufacturer's directions measuring luminescence (relative luminescent units, RLU). #P<0.001 (vs. LPS+ATP), **P<0.005 (vs. LPS+ATP), * (P<0.05 vs. LPS+ATP). (C) Diagram showing the PAR1 sequence, peptide sequences and relative (anti-inflammatory) activity. These include sequences of TR47 (SEQ ID NO:7), Ac-TR47 (SEQ ID NO:56), 16-mer-TR47 (SEQ ID NO:43), 9-mer-TR47 (SEQ ID NO:36), 8-mer-TR47 (SEQ ID NO:35), 6-mer-TR47 (SEQ ID NO:33), TR47 N−1 (SEQ ID NO:47), TR47 N−2 (SEQ ID NO:51), TR47 N−5 (SEQ ID NO:48), TR47AQ (SEQ ID NO:49), TR47AD (SEQ ID NO:52), TR47AA (SEQ ID NO:50) and TR48-54 (SEQ ID NO:53). […]

Sequence: GAPPNSFEEFPFSALEGWTGATIT [P3R, PAR3-derived 24-mer peptide]
- normalized caspase 1 activity (P3R at ≤500 nM with 1 nM TR47): a significant reduction in normalized caspase 1 activity was observed
- caspase 1 activity: reduced caspase 1 activity; also recorded: a significant reduction in caspase 1 activity was observed

Sequence: NPNDKYEPFWEDEEKNESGL [TR47, PAR1-derived 20 amino acid peptide]
- caspase 1 activity normalized to caspase 1 inhibited conditions (TR47 at <10 nM in the presence of 500 nM P3R): a reduction in caspase 1 activity was observed
- caspase 1 activity: similarly reduced caspase 1 activity
